Assays:
[1] = Metabolism in liver microsomal enzymes (liver S9 fraction); type: in vitro ADME, mouse; conditions: for HPLC peak area of drug: liver S9 fraction + NADPH, 37° C.; for Degrade %: liver S9 fraction
Description: The liver of a mouse was taken out and washed by cold normal saline and dried with filter paper, then cut into small pieces. They were washed 2-3 times with ice cold PBS (pH=7.4) until the elute became colorless or faint yellow. The small pieces of the liver were cut into fragments. Then PBS (pH=7.4) solution in an amount four times of the weight of the liver was added. The liver fragments were homogenated under ice-bath to avoid the down-regulation of enzymatic activity. The homogenated mixture was transferred into a centrifuge tube with stopper and centrifuged for 20 min at 4000 r/min to get the supernatant. Then, the supernatant was centrifuged at 12000 r/min for 20 min to get the supernatant, which was the S9 fraction.
Liver microsomal S9 was mixed with drug solutions. 1800 μL of the mixture in test tube was pre-incubated in a water-bath for 5 min at 37° C. 200 μL of 10 mmol/L NADPH solution was added to start the reaction. The final reaction volume was 2 mL. 200 μL of the incubation solution was taken at 0 min, 10 min, 20 min, 40 min, 1 h, 2 h, 4 h, 6 h, 12 h, respectively. 1 mL of ice cold isopropanol was added into the solution immediately and vortexed for 30 s and kept still for 5 min. 2.5 mL of EtOAc was added and vortexed and centrifuged at 4000 rpm for 15 min. The supernatant was taken and dried by blowing in nitrogen. The dried sample was redissolved in 200 μL HPLC mobile phase solution. 20 μL sample was loaded to the HPLC. The chromatography and peak area were recorded.

[2] = system: Bel7402: a human liver cancer cell line; assay: MTT analytical method, Bel7402 cells; type: cell-based; conditions: Bel-7402, 72 h
Text: MTT analytical method was used to test the prodrugs for various tumor cells.
• 1) Cell lines: NCI-H460, A549, LOVO, HT-29, MDA-MB-231, SGC7901, HepG2 or BEL-7402 cell lines. Culture: adherent culturing in D-MEM (Hyclone, Inc.) containing 10% fetal calf serum. The initial cell concentration was about 3×10^5 /mL. The cell was passaged by 1:3 dilution in every 2-3 days. On the day before the test, the cell was passaged by 1:2 dilution, the cell concentration for the test was 5-10×10^5 /mL. • 2) Dissolution and dilution of compounds: according to the weight and molecular weight of the drugs provided, 100-200 μL of DMSO was added. Then normal saline was added to make the final diluted concentration of the drugs be 5 mM (Note that the final concentration of DMSO should not be more than 10%). • 3) D-MEM or RPMI 1640 cell culture medium, Gibco, Inc. • 4) Fetal calf serum Hyclone, Inc. • 5) Cell dissociation buffer, 0.25% Trypsin+0.02% EDTA. • 6) MTT solution, MTT Powder (Sigma) were dissolved in PBS buffer solution to make a solution of 5 mg/mL. The solution was filtered by a 0.22 μm micropore membrane and stored at −20° C. • 7) PBS buffer solution. • 8) 10% acidified SDS, 0.01N HCl. • 9) Centrifuge tubes, haustorial tubes etc. (BD, Inc.); 96-well plates (Costatr, Inc.) Procedures: • 1) Cell inoculation: Cells grown for 24 hours after passage, which cells were in good growth state, were used. The cells were harvested by the routine method. The cell concentration was adjust with a fresh culture solution to 2×10^5/mL (for adherent cells)-3×10^5/mL (for suspension cells). The adherent cells were inoculated at 100 μL/well and then cultivated in an incubator with 5% CO2 at 37° C. for 24 h. Thereafter the used culture solution was removed and 95 μL/well of fresh culture solution was added. The suspension cells were inoculated at 95 μL/well directly. • 2) Drugs treatment: 9 concentration grades were designed for every drug, and every concentration had 3 wells. The control group had 5 wells. The control group was tested simultaneously in each test. The final concentrations of a drug added were […], and 5 μL normal saline was added to the control group. • 3) Cell culture and detection: the cells were cultured in an incubator with 5% CO2 at 37° C. for 72 h after the drug was added, then 10 μL MTT was added to each well and the culture was continued for 4 h. 100 μL of 10% SDS (containing 0.01N HCl) was added to each well. After 24 h, the absorbance (A) of each well was determined by Bio-rad 680 ELISA with the detection wavelength of 570 nm and the reference wavelength of 630 nm. Calculation:
First, the absorbance (A) of each well was averaged (removing any data with big difference). […] A0 was the mean absorbance of the control wells. The effect curve of the drug concentration was drawn using EXCEL software and the drug concentration for 50% cell survival was calculated according to an appropriate computing methods.

[3] = system: HT29 tumor transplanted in nude mice; assay: HT29 tumor transplanted in nude mice, intravenous administration; conditions: for inhibitory rate (relative tumor volume) at the end of the experiments: HT29; for weight loss rate: 20 mg/kg i.v., d17, HT29 nude mice; for toxicity judged by body weight loss, in words: mouse, in vivo, iv
Description: 1. […] The drugs were packaged and stored at −20° C.
The treatment starting day was the first day (d0). […] The tumor tissues were removed and weighed. The inhibition rate of tumor growth was calculated.

Structure (SMILES): CCCCCCCCCCCCOC(=O)c1nccnc1C(=O)Nc1ccn([C@@H]2O[C@H](CO)[C@@H](O)C2(F)F)c(=O)n1 [Compound 4, Dodecyl-3-((1-((2R,4R,5R)-3,3-difluoro-4-hydroxy-5-(hydroxymethyl)-tetrahydrofuran-2-yl)-2-oxo-1,2-dihydropyrimidin-4-yl)carbamoyl)pyrazine-2-carboxylate]
- HPLC peak area of drug ([1]; 0 min): 179613.3
- HPLC peak area of drug ([1]; 1 h): 172893.5
- HPLC peak area of drug ([1]; 2 h): 142419.3
- HPLC peak area of drug ([1]; 4 h): 64632.59
- HPLC peak area of drug ([1]; 6 h): 27009.4
- HPLC peak area of drug ([1]; 12 h): 18730.51
- Degrade % ([1]; 0 min): 0%
- Degrade % ([1]; 1 h): 3.74%
- Degrade % ([1]; 2 h): 20.71%
- Degrade % ([1]; 4 h): 64.02%
- Degrade % ([1]; 6 h): 84.96%
- Degrade % ([1]; 12 h): 89.57%
- IC50 [2]: 8 µM
- inhibitory rate (relative tumor volume) at the end of the experiments ([3]; 20 mg/kg i.v. (Gem group; SL01 middle dosage group)): 23%
- weight loss rate [3]: 8%
- inhibitory rate (relative tumor volume) at the end of the experiments ([3]; SL01 high dosage group 40 mg/kg i.v.): 7%
- toxicity judged by body weight loss, in words [3]: neither the gemcitabine positive control group nor SL-01 has obvious toxicity

Structure (SMILES): Nc1ccn([C@@H]2O[C@H](CO)[C@@H](O)C2(F)F)c(=O)n1 [Gemcitabine, gemcitabine, reference compound]
- Degrade % ([1]; 0 min): 0%
- Degrade % ([1]; 1 h): 3.64%
- Degrade % ([1]; 2 h): 56.16%
- Degrade % ([1]; 4 h): 72.02%
- Degrade % ([1]; 6 h): 85.55%
- Degrade % ([1]; 12 h): 95.13%
- IC50 [2]: 4 µM
- weight loss rate [3]: 4%
- toxicity judged by body weight loss, in words [3]: neither the gemcitabine positive control group nor SL-01 has obvious toxicity

— US8653048B2 (Sanlugen Pharmatech Ltd., priority 2009, dated 2014)
